Patent US20260256909A1, “COMBINATION OF A BTN3A ACTIVATING ANTIBODY, A BCL2 INHIBITOR AND HYPOMETHYLATING AGENT FOR USE IN TREATING CANCER” (Imcheck Therapeutics, priority 2022, published 2026)

Legend:
Format in all cases: cell-based, human
KG1a AML cell line = experiment: Sensitivity of KG1a AML cell line (Cell Titer Glo luminescence); settings: for EC50: Homo sapiens, KG-1a, 48 h, 2 days treatment, luminescence, read-out: EC50 on KG1a AML cells; for mean survival of KG1a AML cells: Venetoclax at 5 μM and/or 5-Azacytidine at 10 μM, 2 days
Method: First, to assess the sensitivity of KG1a AML cell line to Venetoclax and 5-Azacytidine treatment in vitro, cells were treated with increasing concentrations of Venetoclax (0-5 μM), 5-Azacytidine (0-10 μM) or the combination for 2 days in cell culture medium (alpha-MEM+Glutamax supplemented with 20% Fetal Bovine Serum (FBS) and 1 mM Sodium Pyruvate). On day 2, cells were centrifuged at 1800 rpm for 5 minutes and the supernatant discarded. Cells were lysed with Cell Titer Glo reagent (Promega), and ATP amount was monitored as a measure of living cells using luminescence.

Vγ9Vδ2 T cells = experiment: ICT01-induced IFNγ production by Vγ9Vδ2 T cells in HD-PBMC (intracellular staining); settings: for effect on ICT01-induced IFNγ production by Vγ9Vδ2 T cells: single agent, independent of IL2
Method: To evaluate the effect of Venetoclax and 5-Azacytidine on cytokine production, freshly isolated human PBMC from healthy donors (HD, n=6) were cultured in PBMC medium (RPMI 1640 Medium supplemented with 10% Fetal Bovine Serum (FBS), 1% Penicillin/Streptomycin and 1 mM Sodium Pyruvate) and treated with ICT01 or its isotype control (hIgG1S) used at 1 μg/mL in the presence or absence of increasing concentrations of Venetoclax (0-0.1 μM), 5-Azacytidine (0-0.4 μM) or the combination. Half of the cells were additionally treated with 50 IU/mL IL2. Golgi Stop was added after 6-8 hours of co-culture and cells were harvested 16 h later, centrifuged at 1800 rpm for 5 minutes and then incubated 10 minutes at room temperature (RT) with 25 μl of FcR blocking reagent (Miltenyi Biotec) before adding 25 μL of the following antibody mix prepared in PBS+2% FBS+2 mM EDTA (FACS buffer): anti-CD4-BV650, Vγ9-FITC, CD3-PE-CF594, CD56-PE-Vio770 and CD8-AF700 antibodies for the identification of immune subsets, and a viability marker (LIVE/DEAD™ Fixable Dead Cell Stain) was added to distinguish live from dead cells. After 20 minutes, 100 μL of CytoFix solution (BD Bioscience) was added, and cells were incubated for 20 minutes at 4° C. 100 μL of Perm/Wash (BD Bioscience) were added, cells centrifuged and washed once in 200 μL Perm/Wash. After washing, cells were stained with anti-IFNγ-APC antibody for 30 minutes at 4° C., washed twice with Perm/Wash, and analyzed by flow cytometry.

KG1a AML cells = experiment: Killing of KG1a AML cells in co-culture with HD-PBMC (flow cytometry); settings: for effect on Vγ9Vδ2 T cell killing activity compared to hIgG1S conditions: upon activation with ICT01, single agent, KG1a co-culture with HD-PBMC
Method: A) Sensitivity of KG1a cell line to Venetoclax, 5-Azacytidine or the combination. […] N=2 experiments. B) Mean±SEM relative number of Live KG1a AML cells monitored by flow cytometry after 3 days of co-culture with HD-PBMC (E:T ratio 25:1) treated with ICT01 (black) or its isotype control (hIgG1S, light grey) at 0.1 or 1 μg/mL. N=6, each dot represents one healthy donor. C) Schematic representation of treatment schedule for killing of KG1a AML cells by HD-PBMC. D) Relative number of Live KG1a AML cells (Mean±SEM) (left) and Frequency of Live KG1a AML cell relative to no Venetoclax or 5-Azacytidine treatment (Mean±SEM) (right) after 3 days of co-culture with HD-PBMC in presence of ICT01 (black) or its isotype control (hIgG1S, light grey) and treatment with Venetoclax, 5-Azacytidine or the combination. N=6, each dot represents one healthy donor, * p<0.05, Wilcoxon test.
KG1a cells were co-cultured with HD-PBMC at ratio 5:1 in presence of m20.1 or isotype control (0.1 μg/mL). After 6 hrs, indicated concentrations of Venetoclax, 5-Azacytidine or the combination were added to the culture. Relative number of live KG1a was monitored after 48 hrs by flow cytometry. […] N=6, each dot represents one healthy donor, * p<0.05, ** p<0.01, *** p<0.001, **** p<0.0001, 2 way ANOVA.
KG1a or MOLM14 AML cell lines were co-cultured with HD-PBMC at ratio 5:1 in presence of ICT01 or isotype control (0.1 μg/mL). After 6 hrs, indicated concentrations of ABT-737, Navitoclax or MIK665 were added to the culture. A) Relative numbers of live KG1a cells (Mean±SEM) after 2 days of co-culture with HD-PBMC in presence of ICT01 (black) or its isotype control hIgG1S (light grey) and treatment with indicated concentration of ABT-737. B) Relative numbers of live KG1a cells (Mean±SEM) after 2 days of co-culture with HD-PBMC in presence of ICT01 (black) or its isotype control hIgG1S (light grey) and treatment with indicated concentration of Navitoclax. C) Relative numbers of live MOLM14 cells (Mean±SEM) after 2 days of co-culture with HD-PBMC in presence of ICT01 (black) or its isotype control hIgG1S (light grey) and treatment with indicated concentration of MIK665. N=6 HD, each dot represents one healthy donor, * p<0.05, 2 way ANOVA.
The effect of Venetoclax and 5-Azacytidine on anti-BTN3A antibodies-induced killing of AML cell lines by Vγ9Vδ2 T cells was assessed by measuring the relative number of surviving target cells in a HD-PBMC-AML cell co-culture using flow cytometry.
Then, KG1a AML cells were stained with CellTrace CFSE Proliferation dye (ThermoFisher) to allow for specific detection by flow cytometry, counted, put into a co-culture with thawed HD-PBMC and treated with the anti-BTN3A mAbs ICT01 or m20.1 or their respective isotype controls (hIgG1S or mIgG1) in PBMC medium (RPMI 1640 Medium supplemented with 10% Fetal Bovine Serum (FBS) and 1 mM Sodium Pyruvate). On day one of culture, increasing concentrations of Venetoclax (0-0.4 μM), 5-Azacytidine (0-0.4 μM) or the combination were added. Cells were harvested on day 3 of co-culture, centrifuged at 1800 rpm for 5 minutes and then incubated 10 minutes at room temperature (RT) with 25 μl of FcR blocking reagent (Miltenyi Biotec) before adding 25 μL of the following antibody mix prepared in PBS+2% FBS+2 mM EDTA (FACS buffer): anti-CD56-BV421, CD19-BV421, CD14-BV785, Tyb-PE and CD3-AF700 antibodies for the identification of immune subsets, and a viability marker (LIVE/DEAD™ Fixable Dead Cell Stain) was added to distinguish live and dead cells. Cells were incubated 20 minutes at room temperature, washed once in FACS buffer and once in AnnexinV staining buffer. An AnnexinV-APC probe mixed with CountBright Absolute Counting Beads (Invitrogen) was added to determine apoptosis and relative cell numbers, followed by 15 minutes incubation at RT before flow cytometry analysis. […]

Question: For Nc1ncn([C@@H]2O[C@H](CO)[C@@H](O)[C@H]2O)c(=O)n1 [5-Azacytidine, 4-amino-1-[(2R,3R,4S,5R)3,4-dihydroxy-5-(hydroxymethyl)oxolan-2-yl]-1,3,5-triazin-2-one], which EC50 (KG1a AML cell line) is on record?
Answer: 4.72 µM

Question: And the “mean survival of KG1a AML cells” value (KG1a AML cell line)?
Answer: 47.2%

Question: What about the “effect on ICT01-induced IFNγ production by Vγ9Vδ2 T cells” value (Vγ9Vδ2 T cells) of the same compound?
Answer: no effect

Question: What about the “effect on KG1a survival” value (KG1a AML cells; hIgG1S conditions, co-culture with HD-PBMC, day 3) of the same compound?
Answer: no effect

Question: What about the “effect on KG1a survival” value (KG1a AML cells; mIgG1 conditions, HD-PBMC ratio 5:1, 48 hrs) of the same compound?
Answer: no effect

Question: What about the “effect on Vγ9Vδ2 T cell killing activity compared to hIgG1S conditions” value (KG1a AML cells) of the same compound?
Answer: slight increasing effects

Question: CC1(C)CCC(CN2CCN(c3ccc(C(=O)NS(=O)(=O)c4ccc(NCC5CCOCC5)c([N+](=O)[O-])c4)c(Oc4cnc5[nH]ccc5c4)c3)CC2)=C(c2ccc(Cl)cc2)C1 [Venetoclax, 4-[4-[[2-(4-chlorophenyl)-4,4-dimethylcyclohexen-1-yl]methyl]piperazin-1-yl]-N-[3-nitro-4-(oxan-4-ylmethylamino)phenyl]sulfonyl-2-(1H-pyrrolo[2,3-b]pyridin-5-yloxy)benzamide] was tested. Which EC50 (KG1a AML cell line) did it give?
Answer: 1.82 µM

Question: And the “mean survival of KG1a AML cells” value (KG1a AML cell line)?
Answer: 20.2%

Question: What about the “effect on ICT01-induced IFNγ production by Vγ9Vδ2 T cells” value (Vγ9Vδ2 T cells) of the same compound?
Answer: no effect

Question: What about the “reduction of KG1a relative numbers” value (KG1a AML cells; hIgG1S-treatment conditions, highest concentration, co-culture with HD-PBMC, day 3) of the same compound?
Answer: ~ 28%

Question: What about the “reduction of KG1a relative numbers” value (KG1a AML cells; mIgG1 conditions, Venetoclax 0.1 μM alone or combined with 0.4 μM 5-Azacytidine, HD-PBMC ratio 5:1, 48 hrs) of the same compound?
Answer: 41%

Question: And the “effect on Vγ9Vδ2 T cell killing activity compared to hIgG1S conditions” value (KG1a AML cells)?
Answer: slight increasing effects

Question: How did the “IFNγ production by Vγ9Vδ2 T cells” value (Vγ9Vδ2 T cells; HD-PBMC activated with ICT01 (1 μg/mL) in presence of IL2 (50 IU/mL)) turn out when “ICT01: humanized BTN3A activating antibody of mAb 7.2, heavy chain SEQ ID NO: 4, light chain SEQ ID NO: 6, silent IgG1 L247F/L248E/P350S” was run?
Answer: 89.1%

Question: What about the “IFNγ production by Vγ9Vδ2 T cells” value (Vγ9Vδ2 T cells; HD-PBMC activated with ICT01 alone (1 μg/mL), no IL2) of the same compound?
Answer: 30.4%

Question: What about the “average reduction of live KG1a cell numbers compared to hIgG1S conditions” value (KG1a AML cells; 3 days co-culture with HD-PBMC (E:T ratio 25:1), large variability within PBMC donors) of the same compound?
Answer: ~ 20%

Question: What about the “KG1a cell death as compared to control condition” value (KG1a AML cells; ICT01 0.1 μg/mL, HD-PBMC ratio 5:1, 2 days (FIG. 8a)) of the same compound?
Answer: ~ 21%
